Our source for the GI50 and TGI values is PubChem BioAssay (NCI).

Test systems include SF-539 CNS; SR leukemia; HOP-92 NSCLC; OVCAR-3 ovarian; OVCAR-5 ovarian; CCRF-CEM leukemia; NCI-H522 lung; SN12C renal; MALME-3M melanoma; HCT-116 colon.
Holding throughout (test): DTP human tumour cell line panel, 48 h

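Results reflect a 48-hour exposure of cells in 96-well plates to compound at five concentrations. At the GI50, growth is halved. The concentration for full growth arrest is given as TGI.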

For orientation: GI50 means the concentration giving 50% growth inhibition. The TGI is the concentration giving total growth inhibition. Low readings indicate more potent growth arrest, high ones less potent growth arrest. Consider `C[C@@]12CC=C3c4nc(Nc5cccc(O)c5)sc4CC[C@]3(C)[C@H]1CC[C@]1(C)C(=O)CC[C@@H]21`, for which the concentration for 50% growth inhibition (GI50) is 0.387 µM in the test on SF-539 CNS; 1.87 µM with SR leukemia; 1.93 µM in the test on HOP-92 NSCLC; 1.66 µM in the test on OVCAR-3 ovarian; 2.58 µM in the test on OVCAR-5 ovarian; 1.83 µM in the test on CCRF-CEM leukemia. Also, the GI50 in the test with NCI-H522 lung is 2.14 µM. In addition, the TGI with SF-539 CNS is 1.52 µM; in the test with SR leukemia it was > 100 µM; with HOP-92 NSCLC, 5.32 µM; with OVCAR-3 ovarian, 3.1 µM; with OVCAR-5 ovarian it was 7.26 µM; in the test with CCRF-CEM leukemia it was > 100 µM. This compound returned a concentration for total growth inhibition (TGI) in the test with NCI-H522 lung of 4.64 µM.
Turning to `COc1ccccc1CCc1cc(OC)c(OC)c(OC)c1`, the concentration for total growth inhibition (TGI) in the test on SF-539 CNS, with SN12C renal, in the test on HOP-92 NSCLC, in the test on MALME-3M melanoma, with OVCAR-3 ovarian and in the test with HCT-116 colon was > 100 µM in each case. The TGI in the test with OVCAR-5 ovarian was 51.3 µM; with CCRF-CEM leukemia, > 100 µM; in the test with NCI-H522 lung it was > 100 µM.
With `O=C1C2C3C=C4c5ccccc5N(c5ccccc5)C4(C2C(=O)N1Cc1ccccc1)C1C(=O)N(Cc2ccccc2)C(=O)C31` (centres undefined), the TGI in the test with SF-539 CNS, with SN12C renal, in the test with SR leukemia, with HOP-92 NSCLC, in the test with MALME-3M melanoma and with HCT-116 colon was > 100 µM each time. Moreover, the TGI in the test with OVCAR-5 ovarian and in the test on CCRF-CEM leukemia was > 100 µM in each case.
Regarding `CC1(C)C(=O)N(CCCCCCN2C(=O)C(C)(C)c3ccccc32)c2ccccc21`, the total growth inhibition concentration (TGI) with SF-539 CNS was > 100 µM; in the test on SN12C renal it was > 100 µM; in the test with HOP-92 NSCLC, > 100 µM; with MALME-3M melanoma, 75.8 µM; with OVCAR-3 ovarian, 77.8 µM; with HCT-116 colon, 42.4 µM. Also, the TGI is > 100 µM in the test on OVCAR-5 ovarian and 47.5 µM in the test on CCRF-CEM leukemia.
`COc1cc(C(C)O)c[n+](CCc2c[nH]c3ccccc23)c1` (centres undefined): the TGI in the test with SF-539 CNS, with SN12C renal, in the test on SR leukemia, with MALME-3M melanoma, in the test on OVCAR-3 ovarian and in the test on HCT-116 colon was > 100 µM in each case. Besides, the total growth inhibition concentration (TGI) in the test with CCRF-CEM leukemia and with NCI-H522 lung was > 100 µM in each case.
Take `COC(=O)/C(=N\Nc1nnc(C)n1N)C(C#N)c1ccc(Cl)cc1` (centres undefined): the TGI in the test on SF-539 CNS, in the test with SN12C renal, in the test with HOP-92 NSCLC, in the test with MALME-3M melanoma, in the test with OVCAR-3 ovarian and in the test with HCT-116 colon was > 100 µM throughout. In the test with OVCAR-5 ovarian, the concentration for total growth inhibition (TGI) was > 100 µM.
As to `COc1ccc(/C=C/c2ccnc3ccccc23)c(OC)c1`, the concentration for total growth inhibition (TGI) with SF-539 CNS, with SN12C renal, in the test with MALME-3M melanoma, in the test on OVCAR-3 ovarian, in the test on HCT-116 colon and with OVCAR-5 ovarian was > 10 µM each time. Also, the TGI in the test with CCRF-CEM leukemia and in the test on NCI-H522 lung was > 10 µM throughout.
As to `CC1(C)SCc2nc3ncccc3n21`, the TGI in the test on SF-539 CNS, with SN12C renal, in the test on HOP-92 NSCLC, in the test with MALME-3M melanoma, in the test on OVCAR-3 ovarian and in the test on OVCAR-5 ovarian was > 100 µM each time. For the same compound, the concentration for total growth inhibition (TGI) with CCRF-CEM leukemia and in the test with NCI-H522 lung was > 100 µM in each case.
Take `Clc1nc(Cl)c(Cl)c(-c2ccccc2)n1`: the TGI in the test with SF-539 CNS was 31.5 µM; in the test on SN12C renal it was 53.9 µM; in the test with MALME-3M melanoma it was 53.7 µM; in the test on OVCAR-3 ovarian, 5.38 µM; in the test on OVCAR-5 ovarian, 42.1 µM; in the test with NCI-H522 lung it was 3.2 µM.
Turning to `NCC1Nc2ccccc2[C@@H](O)C1O` (some centres undefined), the concentration for total growth inhibition (TGI) in the test with SF-539 CNS, with SN12C renal, with SR leukemia, in the test with HOP-92 NSCLC, in the test with MALME-3M melanoma and in the test with OVCAR-3 ovarian was > 100 µM in each case. For the same compound, the TGI in the test with HCT-116 colon, with OVCAR-5 ovarian and with CCRF-CEM leukemia was > 100 µM each time.
Turning to `COc1ccccc1/C=C1\SC(=S)N(/C=C2\C(=O)Oc3ccccc3C2=O)C1=O`, the total growth inhibition concentration (TGI) is 85.3 µM in the test with SF-539 CNS; 64.8 µM with HOP-92 NSCLC; 64 µM with MALME-3M melanoma; 44.6 µM with OVCAR-3 ovarian; > 100 µM in the test on HCT-116 colon; > 100 µM in the test with OVCAR-5 ovarian. Moreover, the figures for the TGI in the test on CCRF-CEM leukemia and in the test with NCI-H522 lung were > 100 µM and 95.7 µM, respectively.
For the compound `COc1cc(/C=C/c2cc(/C=C/c3ccc(O)c(OC)c3)n(C(=O)Nc3ccc(F)c(Cl)c3)n2)ccc1O`, the GI50 with SR leukemia was 0.0415 µM; in the test on HOP-92 NSCLC, 1.03 µM; with MALME-3M melanoma, 1.05 µM; in the test on OVCAR-3 ovarian, 0.263 µM; in the test on OVCAR-5 ovarian, 1.82 µM; with CCRF-CEM leukemia it was 0.131 µM. Further, the concentration for total growth inhibition (TGI) in the test with HOP-92 NSCLC was 5.89 µM; in the test with MALME-3M melanoma, 2.48 µM; in the test on OVCAR-3 ovarian, 0.837 µM; in the test with OVCAR-5 ovarian, 6.87 µM; in the test on CCRF-CEM leukemia it was > 100 µM.
As for `Cc1cccc(NC(=O)/C(=N\NC(C)(C)C)C2NC(=S)NC2=O)c1C` (centres undefined), the TGI in the test with SF-539 CNS, with MALME-3M melanoma, in the test with OVCAR-3 ovarian, with HCT-116 colon, in the test with OVCAR-5 ovarian and with CCRF-CEM leukemia was > 100 µM each time.
As to `CN1c2ccc(Cl)cc2C(=O)NC1c1ccc([N+](=O)[O-])s1` (centres undefined), the TGI was determined as 37.5 µM with SF-539 CNS; 30.9 µM in the test with SN12C renal; 35.1 µM with SR leukemia; 33.1 µM in the test on HOP-92 NSCLC; 31.4 µM in the test with OVCAR-3 ovarian; 29 µM in the test with HCT-116 colon. Also, the concentration for total growth inhibition (TGI) in the test on OVCAR-5 ovarian was 54.1 µM; in the test on CCRF-CEM leukemia, > 100 µM.
Take `Cc1ccc(C2=C(c3ccccc3)C(Br)(c3ccc(C)cc3)C(c3ccccc3)=C2c2ccc(C)cc2)cc1`: the TGI in the test with SF-539 CNS, with SN12C renal, in the test with HOP-92 NSCLC, in the test on MALME-3M melanoma, with OVCAR-3 ovarian and in the test with HCT-116 colon was > 100 µM each time. Further, the total growth inhibition concentration (TGI) with OVCAR-5 ovarian and with CCRF-CEM leukemia was > 100 µM in each case.
As for `O=C(Cc1ccccc1)NN1C(=O)C(Cl)C1c1cc(Br)ccc1O` (centres undefined), the concentration for total growth inhibition (TGI) in the test on SN12C renal, with SR leukemia, in the test with MALME-3M melanoma, in the test with OVCAR-3 ovarian, with HCT-116 colon and in the test with OVCAR-5 ovarian was > 100 µM each time. The TGI with CCRF-CEM leukemia and with NCI-H522 lung was > 100 µM each time.
